According to patent US20050020542A1, “Method of modulating sodium ion absorption in epithelial cells” (priority 2001, published 2005):

Tested on: human CF nasal epithelia
Assay: Blue Dextran volume transport assay (fluid absorption)
Format: cell-based
Description: In normal human airway epithelia, Na^+ and Cl^− currents (CFTR and Ca^2+-activated Cl^− currents) contribute to airway surface liquid (ASL) fluid volume regulation depending on signaling equilibria. In contrast, in human CF airway epithelia, Na^+ currents through ENaC dominate basal ASL volume regulation accompanied by a relatively minor contribution through Ca^2+-activated Cl^− currents. The combination of enhanced ENaC currents and transient Ca^2+-activated Cl^− currents in CF result in an inadequate hydration of the ASL and reduction of mucociliary clearance. Since INO-E2 reduces Na^+ transport through ENaC, we hypothesized that INO-E2 would have a functional effect, similar to amiloride, and inhibit fluid absorption. To test this hypothesis, we exposed well differentiated monolayer cultures of CF nasal epithelia to an apically applied buffer containing INO-E2 and a known concentration of the non-permeable molecule Blue Dextran (BD). The resulting reduction in the ability of these monolayers to concentrate BD was taken as a functional indicator of INO-E2's involvement in the inhibition of ENaC.
HEPES Modified Ringer's Buffer (HMRB) was used for these assays. HMRB was sterilized by positive pressure filtration through a 0.2 um syringe tip filter (Gelman acrodisc). The BD stock solution was aseptically prepared with sterile buffer (2 mg BD/ml buffer). Compounds to be tested were solubilized in sterile HMRB containing 1 μM BD (final concentration of vehicle is 0.1% (1:1, DMSO+DMSO containing 5% pluronic-F127). […] A standard concentration curve was obtained by determining the optical densities of a serial dilution of 10 μM Blue Dextran in HMRB placed in a Falcon 3027 96-well plate. The optical density of BD in the solution was obtained by analysis at 660 nm in a Packard Spectracount. Standards and samples were analyzed on the same plate. 50 μl volumes were used for all samples and standards. The [BD] of the samples was determined by extrapolation from the standard curve using the Packard I-Smart software. The increase in [BD] from the starting value of 1 μM was taken to be an indication of the magnitude of volume absorption occurring across the monolayer. The rate of absorption was calculated by dividing the change in volume by the duration of the experiment. This value was normalized to a surface area of 1 cm^2, to give μl·cm^2−1·hr^−1. To address evaporative loss, which would appear in the data as artificially high absorptive rates, dummy membranes were constructed by attaching a thin Sylgard sheet to snapwells/transwells with silicon sealant. These dummy membranes were used in parallel with the epithelial monolayers to assess evaporative loss for each experiment.

With `CCCCCCCCOC1C(OC(=O)CCC)C(OP(=O)(OCOC(=O)CC)OCOC(=O)CC)C(OP(=O)(OCOC(=O)CC)OCOC(=O)CC)C(OP(=O)(OCOC(=O)CC)OCOC(=O)CC)C1OP(=O)(OCOC(=O)CC)OCOC(=O)CC` (stereo not shown) [INO-E2, 2-O-butyryl-1-O-octyl-myo-inositol 3,4,5,6-tetrakisphosphate octakis (propionoxymethyl) ester] the “change of potency on fluid absorption with repeat administration” value (2 hours each day for 8 days at 0.1 μM or 1 μM, n=6) was “enhancement of compound potency”, the “potency compared with amiloride in fluid secretion assay” value (comparison 100 μM amiloride) was “as potent as amiloride” and the “duration of effects compared with amiloride” value (conditions that model therapeutic exposure times) was “longer-lasting”. For the same compound, the “duration of effect on fluid secretion following a brief (pulsed) exposure” value (pulsed exposure, FIG. 17) was “prolonged effects”.
